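Briefly, cells in 96-well plates were exposed to five compound concentrations for 48 h, and endpoints were estimated by linear interpolation. The concentration for 50% growth inhibition is given as GI50. At the TGI there is no net growth.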
Tests used:
Experiment in all cases: inhibition of tumour cell growth, NCI panel, 48 h
SK-MEL-2 melanoma = test system: SK-MEL-2 melanoma
TK-10 renal = test system: TK-10 renal
HOP-62 NSCLC = test system: HOP-62 NSCLC
MDA-MB-435 = test system: MDA-MB-435
HOP-92 NSCLC = test system: HOP-92 NSCLC
HCT-116 colon = test system: HCT-116 colon
MDA-MB-231 breast = test system: MDA-MB-231 breast
EKVX NSCLC = test system: EKVX NSCLC
DU-145 prostate = test system: DU-145 prostate
NCI-H23 lung = test system: NCI-H23 lung
OVCAR-5 ovarian = test system: OVCAR-5 ovarian
PC-3 prostate = test system: PC-3 prostate
LOX IMVI melanoma = test system: LOX IMVI melanoma
UACC-257 melanoma = test system: UACC-257 melanoma
RXF 393 renal = test system: RXF 393 renal
UACC-62 melanoma = test system: UACC-62 melanoma
HCT-15 colon = test system: HCT-15 colon
K-562 leukemia = test system: K-562 leukemia
NCI-H522 lung = test system: NCI-H522 lung
NCI-H460 lung = test system: NCI-H460 lung
BT-549 breast = test system: BT-549 breast
NCI/ADR-RES ovarian = test system: NCI/ADR-RES ovarian
SF-539 CNS = test system: SF-539 CNS
T-47D breast = test system: T-47D breast
HL-60(TB) leukemia = test system: HL-60(TB) leukemia
UO-31 renal = test system: UO-31 renal
IGROV1 ovarian = test system: IGROV1 ovarian
HS 578T breast = test system: HS 578T breast
A498 renal = test system: A498 renal
COLO 205 colon = test system: COLO 205 colon
A549 NSCLC = test system: A549 NSCLC
786-0 renal = test system: 786-0 renal
SK-MEL-5 melanoma = test system: SK-MEL-5 melanoma
OVCAR-3 ovarian = test system: OVCAR-3 ovarian
SN12C renal = test system: SN12C renal
M14 melanoma = test system: M14 melanoma
MCF7 breast = test system: MCF7 breast
CAKI-1 renal = test system: CAKI-1 renal
KM12 colon = test system: KM12 colon
CCRF-CEM leukemia = test system: CCRF-CEM leukemia
NCI-H226 lung = test system: NCI-H226 lung
U251 CNS = test system: U251 CNS
SW-620 colon = test system: SW-620 colon
SK-OV-3 ovarian = test system: SK-OV-3 ovarian
SF-295 CNS = test system: SF-295 CNS
ACHN renal = test system: ACHN renal
HCC-2998 colon = test system: HCC-2998 colon
SNB-19 CNS = test system: SNB-19 CNS
SF-268 CNS = test system: SF-268 CNS
MALME-3M melanoma = test system: MALME-3M melanoma
RPMI-8226 leukemia = test system: RPMI-8226 leukemia
OVCAR-8 ovarian = test system: OVCAR-8 ovarian

Compound: O=C(OC(CNc1c(C(=O)c2ccccc2)c(=O)n(Cc2ccccc2)c(=O)n1Cc1ccccc1)CN1CCOCC1)c1ccccc1 (centres undefined)
- GI50 (SK-MEL-2 melanoma): 56.7 µM
- TGI (SK-MEL-2 melanoma): > 100 µM
- GI50 (TK-10 renal): 69 µM
- TGI (TK-10 renal): > 100 µM
- GI50 (HOP-62 NSCLC): 55.5 µM
- TGI (HOP-62 NSCLC): > 100 µM
- GI50 (MDA-MB-435): 86.7 µM
- TGI (MDA-MB-435): > 100 µM
- GI50 (HOP-92 NSCLC): 29.6 µM
- TGI (HOP-92 NSCLC): > 100 µM
- GI50 (HCT-116 colon): 41.1 µM
- TGI (HCT-116 colon): > 100 µM
- GI50 (MDA-MB-231 breast): 42.8 µM
- TGI (MDA-MB-231 breast): > 100 µM
- GI50 (EKVX NSCLC): 52.9 µM
- TGI (EKVX NSCLC): > 100 µM
- GI50 (DU-145 prostate): > 100 µM
- TGI (DU-145 prostate): > 100 µM
- GI50 (NCI-H23 lung): 43.2 µM
- TGI (NCI-H23 lung): > 100 µM
- GI50 (OVCAR-5 ovarian): > 100 µM
- TGI (OVCAR-5 ovarian): > 100 µM
- GI50 (PC-3 prostate): 38.6 µM
- TGI (PC-3 prostate): > 100 µM
- GI50 (LOX IMVI melanoma): 59 µM
- TGI (LOX IMVI melanoma): > 100 µM
- GI50 (UACC-257 melanoma): 76.8 µM
- TGI (UACC-257 melanoma): > 100 µM
- GI50 (RXF 393 renal): 34.7 µM
- TGI (RXF 393 renal): > 100 µM
- GI50 (UACC-62 melanoma): 38.8 µM
- TGI (UACC-62 melanoma): > 100 µM
- GI50 (HCT-15 colon): 38.5 µM
- TGI (HCT-15 colon): > 100 µM
- GI50 (K-562 leukemia): 32.3 µM
- TGI (K-562 leukemia): > 100 µM
- GI50 (NCI-H522 lung): 47.2 µM
- TGI (NCI-H522 lung): > 100 µM
- GI50 (NCI-H460 lung): 46.2 µM
- TGI (NCI-H460 lung): > 100 µM
- GI50 (BT-549 breast): 41.3 µM
- TGI (BT-549 breast): > 100 µM
- GI50 (NCI/ADR-RES ovarian): 47.7 µM
- TGI (NCI/ADR-RES ovarian): > 100 µM
- GI50 (SF-539 CNS): 91.8 µM
- TGI (SF-539 CNS): > 100 µM
- GI50 (T-47D breast): > 100 µM
- TGI (T-47D breast): > 100 µM
- GI50 (HL-60(TB) leukemia): 30.9 µM
- TGI (HL-60(TB) leukemia): > 100 µM
- GI50 (UO-31 renal): 52.8 µM
- TGI (UO-31 renal): > 100 µM
- GI50 (IGROV1 ovarian): 65.2 µM
- TGI (IGROV1 ovarian): > 100 µM
- GI50 (HS 578T breast): 40.2 µM
- TGI (HS 578T breast): > 100 µM
- GI50 (A498 renal): 37.4 µM
- TGI (A498 renal): > 100 µM
- GI50 (COLO 205 colon): 46.3 µM
- TGI (COLO 205 colon): > 100 µM
- GI50 (A549 NSCLC): 49.3 µM
- TGI (A549 NSCLC): > 100 µM
- GI50 (786-0 renal): 70.4 µM
- TGI (786-0 renal): > 100 µM
- GI50 (SK-MEL-5 melanoma): 37.7 µM
- TGI (SK-MEL-5 melanoma): > 100 µM
- GI50 (OVCAR-3 ovarian): 34.1 µM
- TGI (OVCAR-3 ovarian): > 100 µM
- GI50 (SN12C renal): 50.7 µM
- TGI (SN12C renal): > 100 µM
- GI50 (M14 melanoma): 38.4 µM
- TGI (M14 melanoma): > 100 µM
- GI50 (MCF7 breast): 48.1 µM
- TGI (MCF7 breast): > 100 µM
- GI50 (CAKI-1 renal): 34.7 µM
- TGI (CAKI-1 renal): > 100 µM
- GI50 (KM12 colon): 42.1 µM
- TGI (KM12 colon): > 100 µM
- GI50 (CCRF-CEM leukemia): 33.9 µM
- TGI (CCRF-CEM leukemia): > 100 µM
- GI50 (NCI-H226 lung): 49.9 µM
- TGI (NCI-H226 lung): > 100 µM
- GI50 (U251 CNS): 42.3 µM
- TGI (U251 CNS): > 100 µM
- GI50 (SW-620 colon): 76.4 µM
- TGI (SW-620 colon): > 100 µM
- GI50 (SK-OV-3 ovarian): > 100 µM
- TGI (SK-OV-3 ovarian): > 100 µM
- GI50 (SF-295 CNS): 41.6 µM
- TGI (SF-295 CNS): > 100 µM
- GI50 (ACHN renal): 46.8 µM
- TGI (ACHN renal): > 100 µM
- GI50 (HCC-2998 colon): 47.4 µM
- TGI (HCC-2998 colon): > 100 µM
- GI50 (SNB-19 CNS): 71.3 µM
- TGI (SNB-19 CNS): > 100 µM
- GI50 (SF-268 CNS): > 100 µM
- TGI (SF-268 CNS): > 100 µM
- GI50 (MALME-3M melanoma): > 100 µM
- TGI (MALME-3M melanoma): > 100 µM
- GI50 (RPMI-8226 leukemia): 26.8 µM
- TGI (RPMI-8226 leukemia): 82.8 µM
- GI50 (OVCAR-8 ovarian): 64.7 µM
- TGI (OVCAR-8 ovarian): > 100 µM
